Laboratory results taken from PMC9168271, “Discovery of Novel Tetrahydro-β-carboline Containing Aminopeptidase N Inhibitors as Cancer Chemosensitizers” (Frontiers in Oncology, 2022).
Where two headings read alike, the source gives them in different places.

Target: Aminopeptidase N (APN, CD13) (Homo sapiens, UniProt P15144)
Assay: APN enzyme inhibitory assay, supernatant of K562-CD13 cells as enzyme source, L-leucine-p-nitro anilide substrate;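 also: substrate L-leucine-p-nitro anilide used at 1.6 mM, with enzyme from sonicated APN-overexpressing K562 cell lysate supernatant, run in 96-well plates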
Conditions: for inhibition at 30 µM: read-out: Inhibitory rate (%)
Protocol: In the enzyme inhibitory assay, K562-CD13 monoclonal cells were used as APN enzyme source as described in our previous work ([27]).
K562 cells with overexpression of APN were added into PBS for ultrasonic crushing, centrifuged for 10 minutes, and supernatant was taken as enzyme source and added into 96-well plate. Different concentrations of compounds were added subsequently, and 1.6 mM L-leucine-p-nitro anilide was used as substrate. After 30 minutes of reaction, the APN enzyme activity was measured at 405 nm absorbance. The inhibition rate of APN activity was analyzed by the formula (Od control OD tested)/Od control 100%.

Aminopeptidase N (APN, CD13), sequence (P15144 whole entry): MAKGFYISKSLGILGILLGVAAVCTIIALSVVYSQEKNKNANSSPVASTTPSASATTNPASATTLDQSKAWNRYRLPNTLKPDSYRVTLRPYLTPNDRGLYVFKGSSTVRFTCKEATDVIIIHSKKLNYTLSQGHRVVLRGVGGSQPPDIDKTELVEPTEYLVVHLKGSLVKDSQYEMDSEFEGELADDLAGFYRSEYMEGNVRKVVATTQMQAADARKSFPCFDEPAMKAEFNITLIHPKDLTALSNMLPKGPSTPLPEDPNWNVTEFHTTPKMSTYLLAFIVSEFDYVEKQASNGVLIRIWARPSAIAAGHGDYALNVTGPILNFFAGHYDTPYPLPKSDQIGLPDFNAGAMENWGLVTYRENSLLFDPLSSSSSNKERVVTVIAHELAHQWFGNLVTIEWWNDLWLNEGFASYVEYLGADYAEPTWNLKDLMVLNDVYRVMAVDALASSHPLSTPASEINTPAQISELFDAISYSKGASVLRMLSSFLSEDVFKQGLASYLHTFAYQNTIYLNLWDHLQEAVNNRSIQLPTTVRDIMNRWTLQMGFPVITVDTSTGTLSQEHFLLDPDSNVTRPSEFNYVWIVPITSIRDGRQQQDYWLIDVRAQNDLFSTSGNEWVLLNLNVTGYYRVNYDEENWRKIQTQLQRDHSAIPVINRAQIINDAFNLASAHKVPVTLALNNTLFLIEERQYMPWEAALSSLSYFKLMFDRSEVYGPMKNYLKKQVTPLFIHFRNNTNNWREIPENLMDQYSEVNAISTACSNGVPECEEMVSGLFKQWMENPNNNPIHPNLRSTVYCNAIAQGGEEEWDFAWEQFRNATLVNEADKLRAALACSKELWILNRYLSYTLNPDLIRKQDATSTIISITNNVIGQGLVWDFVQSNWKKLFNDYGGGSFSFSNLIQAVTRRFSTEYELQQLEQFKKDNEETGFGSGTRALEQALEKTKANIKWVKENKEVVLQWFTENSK

inhibition at 30 µM	Compound	also measured
13.2 ± 0.4%	O=C(NO)c1ccc(Cn2c3c(c4ccccc42)CCN(C(=O)c2cccc(F)c2)C3)cc1 [Compound D13, 4-((2-(3-fluorobenzoyl)-1,2,3,4-tetrahydro-9H-pyrido[3,4-b]indol-9-yl)methyl)-N-hydroxybenzamide]	–
28.7 ± 2.75%	O=C(NO)c1ccc(Cn2c3c(c4ccccc42)CCN(C(=O)c2ccccc2F)C3)cc1 [Compound D15, 4-((2-(2-fluorobenzoyl)-1,2,3,4-tetrahydro-9H-pyrido[3,4-b]indol-9-yl)methyl)-N-hydroxybenzamide]	–
23.6 ± 4.51%	Cc1ccccc1C(=O)N1CCc2c(n(Cc3ccc(C(=O)NO)cc3)c3ccccc23)C1 [Compound D17, N-hydroxy-4-((2-(2-methylbenzoyl)-1,2,3,4-tetrahydro-9H-pyrido[3,4-b]indol-9-yl)methyl)benzamide]	–
53.2 ± 2.08%	CCc1ccc(C(=O)N2CCc3c(n(CC(=O)NO)c4ccccc34)C2)cc1 [Compound D18, 2-(2-(4-ethylbenzoyl)-1,2,3,4-tetrahydro-9H-pyrido[3,4-b]indol-9-yl)-N-hydroxyacetamide]	–
19.5 ± 4.22%	CCc1ccc(C(=O)N2CCc3c(n(Cc4ccc(C(=O)NO)cc4)c4ccccc34)C2)cc1 [Compound D19, 4-((2-(4-ethylbenzoyl)-1,2,3,4-tetrahydro-9H-pyrido[3,4-b]indol-9-yl)methyl)-N-hydroxybenzamide]	–
19.1 ± 4.17%	O=C(NO)c1ccc(Cn2c3c(c4ccccc42)CCN(C(=O)c2ccccc2Cl)C3)cc1 [Compound D20, 4-((2-(2-chlorobenzoyl)-1,2,3,4-tetrahydro-9H-pyrido[3,4-b]indol-9-yl)methyl)-N-hydroxybenzamide]	–
78.2 ± 5.43%	O=C(Cn1c2c(c3ccccc31)CCN(C(=O)c1cccc(Br)c1)C2)NO [Compound D21, 2-(2-(3-bromobenzoyl)-1,2,3,4-tetrahydro-9H-pyrido[3,4-b]indol-9-yl)-N-hydroxyacetamide]	IC50: 7.82 ± 1.05 µM
19.2 ± 3.7%	O=C(NO)c1ccc(Cn2c3c(c4ccccc42)CCN(C(=O)c2cccc(Br)c2)C3)cc1 [Compound D22, 4-((2-(3-bromobenzoyl)-1,2,3,4-tetrahydro-9H-pyrido[3,4-b]indol-9-yl)methyl)-N-hydroxybenzamide]	–
65 ± 5.97%	O=C(NO)c1ccc(Cn2c3c(c4ccccc42)CCN(C(=O)c2ccc(F)cc2F)C3)cc1 [Compound D23, 4-((2-(2,4-difluorobenzoyl)-1,2,3,4-tetrahydro-9H-pyrido[3,4-b]indol-9-yl)methyl)-N-hydroxybenzamide]	–
71.3 ± 4.25%	O=C(Cn1c2c(c3ccccc31)CCN(C(=O)c1cc(F)cc(F)c1)C2)NO [Compound D24, 2-(2-(3,5-difluorobenzoyl)-1,2,3,4-tetrahydro-9H-pyrido[3,4-b]indol-9-yl)-N-hydroxyacetamide]	IC50: 7.13 ± 0.13 µM
27.9 ± 5.85%	O=C(NO)c1ccc(Cn2c3c(c4ccccc42)CCN(C(=O)c2cc(F)cc(F)c2)C3)cc1 [Compound D25, 4-((2-(3,5-difluorobenzoyl)-1,2,3,4-tetrahydro-9H-pyrido[3,4-b]indol-9-yl)methyl)-N-hydroxybenzamide]	–
53.1 ± 7.31%	CCCc1ccc(C(=O)N2CCc3c(n(CC(=O)NO)c4ccccc34)C2)cc1 [Compound D26, N-hydroxy-2-(2-(4-propylbenzoyl)-1,2,3,4-tetrahydro-9H-pyrido[3,4-b]indol-9-yl)acetamide]	–
20.4 ± 5.78%	CCCc1ccc(C(=O)N2CCc3c(n(Cc4ccc(C(=O)NO)cc4)c4ccccc34)C2)cc1 [Compound D27, N-hydroxy-4-((2-(4-propylbenzoyl)-1,2,3,4-tetrahydro-9H-pyrido[3,4-b]indol-9-yl)methyl)benzamide]	–
78 ± 3.95%	O=C(Cn1c2c(c3ccccc31)CCN(C(=O)c1cc(F)ccc1F)C2)NO [Compound D28, 2-(2-(2,5-difluorobenzoyl)-1,2,3,4-tetrahydro-9H-pyrido[3,4-b]indol-9-yl)-N-hydroxyacetamide]	IC50: 4.85 ± 0.55 µM
60 ± 4.95%	O=C(Cn1c2c(c3ccccc31)CCN(C(=O)c1c(F)cccc1Cl)C2)NO [Compound D29, 2-(2-(2-chloro-6-fluorobenzoyl)-1,2,3,4-tetrahydro-9H-pyrido[3,4-b]indol-9-yl)-N-hydroxyacetamide]	IC50: 9.23 ± 0.67 µM

Second part, the compound before the results:

Compound	inhibition at 30 µM	also measured
O=C(Cn1c2c(c3ccccc31)CCN(C(=O)c1ccc(C(F)(F)F)cc1)C2)NO [Compound D1, N-hydroxy-2-(2-(4-(trifluoromethyl)benzoyl)-1,2,3,4-tetrahydro-9H-pyrido[3,4-b]indol-9-yl)acetamide]	35 ± 1.51%	–
O=C(NO)c1ccc(Cn2c3c(c4ccccc42)CCN(C(=O)c2ccc(C(F)(F)F)cc2)C3)cc1 [Compound D2, N-hydroxy-4-((2-(4-(trifluoromethyl)benzoyl)-1,2,3,4-tetrahydro-9H-pyrido[3,4-b]indol-9-yl)methyl)benzamide]	13.3 ± 3.25%	–
O=C(Cn1c2c(c3ccccc31)CCN(C(=O)c1ccccc1)C2)NO [Compound D3, 2-(2-benzoyl-1,2,3,4-tetrahydro-9H-pyrido[3,4-b]indol-9-yl)-N-hydroxyacetamide]	74.4 ± 6.42%	IC50: 6.24 ± 0.43 µM
O=C(NO)c1ccc(Cn2c3c(c4ccccc42)CCN(C(=O)c2ccccc2)C3)cc1 [Compound D4, 4-((2-benzoyl-1,2,3,4-tetrahydro-9H-pyrido[3,4-b]indol-9-yl)methyl)-N-hydroxybenzamide]	19.4 ± 4.53%	–
O=C(Cn1c2c(c3ccccc31)CCN(C(=O)c1ccccc1C(F)(F)F)C2)NO [Compound D5, N-hydroxy-2-(2-(2-(trifluoromethyl)benzoyl)-1,2,3,4-tetrahydro-9H-pyrido[3,4-b]indol-9-yl)acetamide]	62.9 ± 8.72%	IC50: 14.9 ± 1.03 µM
O=C(NO)c1ccc(Cn2c3c(c4ccccc42)CCN(C(=O)c2ccccc2C(F)(F)F)C3)cc1 [Compound D6, N-hydroxy-4-((2-(2-(trifluoromethyl)benzoyl)-1,2,3,4-tetrahydro-9H-pyrido[3,4-b]indol-9-yl)methyl)benzamide]	15.3 ± 3.66%	–
COc1ccccc1C(=O)N1CCc2c(n(Cc3ccc(C(=O)NO)cc3)c3ccccc23)C1 [Compound D7, N-hydroxy-4-((2-(2-methoxybenzoyl)-1,2,3,4-tetrahydro-9H-pyrido[3,4-b]indol-9-yl)methyl)benzamide]	17.9 ± 0.84%	–
COc1ccccc1C(=O)N1CCc2c(n(CC(=O)NO)c3ccccc23)C1 [Compound D8, N-hydroxy-2-(2-(2-methoxybenzoyl)-1,2,3,4-tetrahydro-9H-pyrido[3,4-b]indol-9-yl) acetamide]	–	Inhibitory rate (%) (compound at 30 µM, mean of at least three experiments): 56.7±0.42%; IC50 (mean of at least three experiments): 25 ± 3.32 µM
COc1ccc(C(=O)N2CCc3c(n(Cc4ccc(C(=O)NO)cc4)c4ccccc34)C2)cc1 [Compound D9, N-hydroxy-4-((2-(4-methoxybenzoyl)-1,2,3,4-tetrahydro-9H-pyrido[3,4-b]indol-9-yl)methyl)benzamide]	24 ± 0.25%	–
O=C(Cn1c2c(c3ccccc31)CCN(C(=O)c1ccc(F)cc1)C2)NO [Compound D10, 2-(2-(4-fluorobenzoyl)-1,2,3,4-tetrahydro-9H-pyrido[3,4-b]indol-9-yl)-N-hydroxyacetamide]	42.5 ± 1.42%	–
O=C(NO)c1ccc(Cn2c3c(c4ccccc42)CCN(C(=O)c2ccc(F)cc2)C3)cc1 [Compound D11, 4-((2-(4-fluorobenzoyl)-1,2,3,4-tetrahydro-9H-pyrido[3,4-b]indol-9-yl)methyl)-N-hydroxybenzamide]	35 ± 4.57%	–
